Assay results reported in patent US10258607B2, “Method of increasing intratumoral pHe and reducing acid-mediated invasion” (H. Lee Moffitt Cancer Center and Research Institute, Inc., priority 2009, dated 2019).
Entries after “also recorded” stand apart in the source; their conditions may differ.

Legend:
[1] = tested on: luciferase-expressing PC3M prostate cancer cells; assay: In vivo experimental lung metastasis model, IEPA in drinking water; design: species or system mice
Protocol: FIG. 10 illustrates (A) the chemical structure of IEPA and (B) an experimental timetable. For the experiment mice (n=10) were started on 200 mM IEPA, or tap water (n=10) at time 0. Four days later 5×10^6 PC3M cells were injected intravenously in to the mice. Images were acquired weekly, and animal were euthanized at week 6 post-injections
Mice were imaged in a ventral view weekly for 6 weeks using the in vivo Imaging System (IVIS, Xenogen).
A region of interest (ROI) was manually selected over the signal intensity. The area of the ROI was kept constant and the intensity was recorded as maximum [photons/sec].
In these experiments, 10 mice were provided with ad libidum 200 mM of 2-imidazole-1-yl-3-ethoxycarbonylpropionic acid (IEPA) in their drinking water and 10 mice were maintained on water.
Four days after initiation of therapy, all animals were injected with luciferase-expressing PC3M prostate cancer cells. […] NMR in biomedicine 2002; 15(2):114-9; van Sluis R, et al., In vivo imaging of extracellular pH using 1H MRSI. Magn Reson Med 1999; 41(4):743-50].

[2] = high doses; cited from earlier work
[3] = 25-50 grams daily, greater than 1 year, patients with renal tubular acidosis and sickle cell anemia; cited from earlier work
[4] = tested on: widely metastatic renal cancer; assay: Case report: patient with metastatic renal cancer
[5] = tested on: spontaneous and experimental metastases; conditions: chronic consumption of sodium bicarbonate solution; cited from earlier work
[6] = cited from earlier work
[7] = self-administered 40 grams of NaHCO3 daily, scans Dec. 5, 2007 and Apr. 18, 2008

For `CCOC(=O)CC(C(=O)O)n1ccnc1` (stereo not drawn) [IEPA, 2-imidazole-1-yl-3-ethoxycarbonylpropionic acid], the “animal weight / weight gain and grooming behavior vs controls” value ([1]; 200 mM IEPA in drinking water) was “not different from controls”, the “lung metastases compared to control group” value ([1]; 200 mM IEPA in drinking water from 4 days before i.v. injection of 5×10^6 PC3M cells, weekly imaging for 6 weeks, p<0.02) was “significantly fewer lung metastases; also recorded: significantly inhibits lung metastasis” and the “mean in vivo photon count, whole animal and lungs, vs tap water group” value ([1]; 200 mM IEPA in drinking water, p<0.002 Wilcoxon two sample test) was “significantly different”. The toxicity in vivo [2] was “non-toxic at high doses”.
For `O=C([O-])O.[Na+]` [NaHCO3, sodium bicarbonate], the “adverse effects on chronic administration” value [3] is given as “without adverse affects”, the tolerability ([4]; "very high" bicarbonate administration for nearly 1 year) is given as “without complication” and the “duration of stable tumor” value ([4]; person, approximately 60 grams of bicarbonate in water daily with vitamins, supplements, no conventional therapy) is given as 10 months. The “central necrosis of tumors on follow-up CT scan” value [4, 7] was “no longer present”, the “liver lesions on CT scans” value [4, 7] was “some of the liver lesions have increased in size, some have decreased in size, and some have remained stable” and the “spontaneous and experimental metastases” value [5] was “inhibited”.
In the case of `CCN(CC)CCNC(=O)c1c(C)[nH]c(/C=C2\C(=O)Nc3ccc(F)cc32)c1C` [Sutent], the tumor response ([4]; first line treatment of liver metastatic disease) is reported as “the tumor progressed”.
In the case of `C[N+](C)(C)CCN` [cholamine chloride], the pKa [6] is listed as 7.1.
In the case of `NCCCC[C@H](N)C(=O)O` [free-base lysine, L-lysine], the pKa1 ([6]; L-lysine with three pKa's) is listed as 2.20, the pKa2 ([6]; L-lysine with three pKa's) is listed as 8.90 and the pKa3 ([6]; L-lysine with three pKa's) is listed as 10.28.
